Values quoted from earlier work in patent publication US20210205254A1, “OMEGA-3 PENTAENOIC ACID COMPOSITIONS AND METHODS OF USE” (Matinas BioPharma, Inc., priority 2012, published 2021).

Settings: in vivo

bioavailable	absorbed (rate)	Structure (SMILES)
approximately 24%		CC(C)n1c(/C=C/C(O)CC(O)CC(=O)O)c(-c2ccc(F)cc2)c2ccccc21 (centres unmarked) [fluvastatin]
	about 30%	CC[C@H](C)C(=O)O[C@H]1C[C@@H](C)C=C2C=C[C@H](C)[C@H](CC[C@@H]3C[C@@H](O)CC(=O)O3)[C@H]21 [lovastatin]
